Measured values reported in ChEMBL document CHEMBL6103573, “Discovery of novel thienopyridine indole derivatives as inhibitors of tubulin polymerization targeting the colchicine-binding site with potent anticancer activities” (Eur J Med Chem, 2025).

Tests used:
MGC-803 [1] = test: Antiproliferative activity against human MGC-803 cells assessed as inhibition of cell proliferation incubated for 48 hrs by MTT assay; type: functional, cell-based; conditions: MGC-803, 48 h
HCT-116 = test: Antiproliferative activity against human HCT-116 cells assessed as inhibition of cell proliferation incubated for 48 hrs by MTT assay; type: functional, cell-based; conditions: HCT-116, 48 h
KYSE-450 = test: Antiproliferative activity against human KYSE-450 cells assessed as inhibition of cell proliferation incubated for 48 hrs by MTT assay; type: functional, cell-based; conditions: KYSE-450, 48 h
Tubulin (Homo sapiens) = Tubulin (Homo sapiens) (UniProt P68371+Q9H4B7+P0DPH7+P68366+Q13509+Q71U36+P04350+Q3ZCM7+P07437+P68363+Q9BQE3+Q6PEY2+Q13885+Q9BVA1+Q9BUF5); test: Inhibition of tubulin (unknown origin) polymerization assessed as decrease in fluorescence intensity at 3 micromol/L in the presence of GTP by fluorescence microplate reader; type: protein-complex assay; conditions: dose 3.0 µmol/L
MGC-803 [2] = test: Antitumor activity against human MGC-803 cells xenografted in female BALB/c-nu nude mouse assessed as tumor inhibition rate at 20 mg/kg, ip administrated every other day for 11 times and measured after 21 days relative to control; type: functional; conditions: MGC-803, 504 h, time 21 day, read-out: TGI

| SMILES | IC50 (MGC-803 [1]) [nM] | IC50 (HCT-116) [nM] | IC50 (KYSE-450) [nM] | inhibition (Tubulin (Homo sapiens)) | inhibition in vivo at 20 mg/kg (MGC-803 [2]) [%] |
| --- | --- | --- | --- | --- | --- |
| CN(c1ccc2c(ccn2C)c1)c1nc(Cl)nc2sccc12 | 2.07 | 2.79 | 3.28 | – | – |
| CCN(c1ccc2c(ccn2C)c1)c1nc(Cl)nc2sccc12 | 3.67 | 8.28 | 7.77 | – | – |
| CN(c1ccc2c(ccn2C)c1)c1nc(N2CCSCC2)nc2sccc12 | 113 | 129 | 289 | – | – |
| CC(=O)O[C@H]1C(=O)[C@@]2(C)[C@H]([C@H](OC(=O)c3ccccc3)[C@]3(O)C[C@H](OC(=O)[C@H](O)[C@@H](NC(=O)c4ccccc4)c4ccccc4)C(C)=C1C3(C)C)[C@]1(OC(C)=O)CO[C@@H]1C[C@@H]2O | – | – | – | Not active; Increase In Fluorescence Intensity Observed | – |
| CN(c1ccc2c(ccn2C)c1)c1nc(N2CCCCC2)nc2sccc12 | 14.8 | 18.2 | 13.2 | – | – |
| CC(=O)N1CCN(c2nc(N(C)c3ccc4c(ccn4C)c3)c3ccsc3n2)CC1 | 308 | 487 | 413 | – | – |
| CN(c1ccc2c(ccn2C)c1)c1nc(N2CCC(Cl)CC2)nc2sccc12 | 18.3 | 29.3 | 25.6 | – | – |
| Cn1ccc2cc(Nc3ncnc4ccsc34)ccc21 | > 5000 | > 5000 | > 5000 | – | – |
| CN(c1ccc2c(ccn2C)c1)c1ncnc2sccc12 | 5.32 | 5.12 | 25.1 | – | – |
| COc1ccc(/C=C\c2cc(OC)c(OC)c(OC)c2)cc1O [COMBRETASTATIN A4] | 6.29 | 7.38 | 5.11 | – | 27.1 |
| Cn1ccc2cc(Nc3nc(Cl)nc4sccc34)ccc21 | > 5000 | > 5000 | > 5000 | – | – |
| CN(c1ccc2[nH]ccc2c1)c1nc(Cl)nc2sccc12 | 4.23 | 7.28 | 5.12 | – | – |
| CN(c1ccc2c(ccn2C(=O)OC(C)(C)C)c1)c1nc(Cl)nc2sccc12 | 253 | 282 | 152 | – | – |
| Cn1ccc2cc(Nc3nc(Cl)nc4ccsc34)ccc21 | > 5000 | > 5000 | > 5000 | – | – |
| COc1cc2c(c(OC)c1OC)-c1ccc(OC)c(=O)cc1[C@@H](NC(C)=O)CC2 [COLCHICINE] | 44.1 | 49.1 | 58.7 | – | – |
| CN(c1ccc2c(ccn2C)c1)c1nc(Cl)nc2ccsc12 | 4.18 | 3.17 | 16.1 | – | – |
| COC1CCN(c2nc(N(C)c3ccc4c(ccn4C)c3)c3ccsc3n2)CC1 | 6.81 | 6.77 | 8.33 | – | – |
| CN1CCN(c2nc(N(C)c3ccc4c(ccn4C)c3)c3ccsc3n2)CC1 | 219 | 441 | 389 | – | – |

Second part, led by results:

| IC50 (MGC-803 [1]) [nM] | IC50 (HCT-116) [nM] | SMILES | IC50 (KYSE-450) [nM] | inhibition (Tubulin (Homo sapiens)) | inhibition in vivo at 20 mg/kg (MGC-803 [2]) [%] |
| --- | --- | --- | --- | --- | --- |
| 893 | 831 | CN(c1ccc2c(ccn2Cc2ccccc2)c1)c1nc(Cl)nc2sccc12 | 921 | – | – |
| 40.2 | 54.2 | CCn1ccc2cc(N(C)c3nc(Cl)nc4sccc34)ccc21 | 39.8 | – | – |
| 8.12 | 6.21 | CC1CCN(c2nc(N(C)c3ccc4c(ccn4C)c3)c3ccsc3n2)CC1 | 9.17 | – | – |
| 12.9 | 17.7 | CN(c1ccc2c(ccn2C)c1)c1nc(N2CCC(F)CC2)nc2sccc12 | 20.7 | – | – |
| 70.7 | 60.2 | CN(c1ccc2c(ccn2C)c1)c1nc(N2CCOCC2)nc2sccc12 | 56.4 | – | – |
| 12.3 | 18.2 | CN(c1ccc2c(ccn2C)c1)c1nc(N2CCC2)nc2sccc12 | 16.1 | – | – |
| 337 | 388 | CN(c1ccc2c(ccn2C)c1)c1nc(N2CCC(C(=O)OC(C)(C)C)CC2)nc2sccc12 | 422 | – | – |
| 89.2 | 125 | CCCN(c1ccc2c(ccn2C)c1)c1nc(Cl)nc2sccc12 | 122 | – | – |
| > 5000 | > 5000 | Cn1ccc2cc(Nc3ncnc4sccc34)ccc21 | > 5000 | – | – |
| > 5000 | > 5000 | CC(C)(C)OC(=O)n1ccc2cc(Nc3nc(Cl)nc4sccc34)ccc21 | > 5000 | – | – |
| 288 | 406 | CCN1CCN(c2nc(N(C)c3ccc4c(ccn4C)c3)c3ccsc3n2)CC1 | 402 | – | – |
| 589 | 682 | CN(c1ccc2c(ccn2C)c1)c1nc(N2CCN(C(=O)OC(C)(C)C)CC2)nc2sccc12 | 597 | – | – |
| 20.6 | 19.6 | CN(c1ccc2c(ccn2C)c1)c1nc(N2CCC(O)CC2)nc2sccc12 | 30.1 | – | – |
| 8.94 | 17.6 | CN(c1ccc2c(ccn2C)c1)c1ncnc2ccsc12 | 34.6 | – | – |
